From US9878986B2, “Compounds for selective histone deacetylase inhibitors, and pharmaceutical composition comprising the same” (CHONG KUN DANG PHARMACEUTICAL CORP., priority 2013, dated 2018)
pIC50: −log10 of the molar value.

Experiments:
[1] = target: T1, HDAC 6 (Homo sapiens, UniProt Q9UBN7); assay: Test of HDAC activities, HDAC6 (fluorimetric); type: biochemical; set-up: purchased Calbiochem 382180; details: samples at 0.1, 1, 10, 100, 1000 nM; 37° C. 60 minutes; fluorescence Ex 390, Em 460; read-out: HDAC inhibitory activities, HDAC6
T1 sequence (Q9UBN7 1-1215): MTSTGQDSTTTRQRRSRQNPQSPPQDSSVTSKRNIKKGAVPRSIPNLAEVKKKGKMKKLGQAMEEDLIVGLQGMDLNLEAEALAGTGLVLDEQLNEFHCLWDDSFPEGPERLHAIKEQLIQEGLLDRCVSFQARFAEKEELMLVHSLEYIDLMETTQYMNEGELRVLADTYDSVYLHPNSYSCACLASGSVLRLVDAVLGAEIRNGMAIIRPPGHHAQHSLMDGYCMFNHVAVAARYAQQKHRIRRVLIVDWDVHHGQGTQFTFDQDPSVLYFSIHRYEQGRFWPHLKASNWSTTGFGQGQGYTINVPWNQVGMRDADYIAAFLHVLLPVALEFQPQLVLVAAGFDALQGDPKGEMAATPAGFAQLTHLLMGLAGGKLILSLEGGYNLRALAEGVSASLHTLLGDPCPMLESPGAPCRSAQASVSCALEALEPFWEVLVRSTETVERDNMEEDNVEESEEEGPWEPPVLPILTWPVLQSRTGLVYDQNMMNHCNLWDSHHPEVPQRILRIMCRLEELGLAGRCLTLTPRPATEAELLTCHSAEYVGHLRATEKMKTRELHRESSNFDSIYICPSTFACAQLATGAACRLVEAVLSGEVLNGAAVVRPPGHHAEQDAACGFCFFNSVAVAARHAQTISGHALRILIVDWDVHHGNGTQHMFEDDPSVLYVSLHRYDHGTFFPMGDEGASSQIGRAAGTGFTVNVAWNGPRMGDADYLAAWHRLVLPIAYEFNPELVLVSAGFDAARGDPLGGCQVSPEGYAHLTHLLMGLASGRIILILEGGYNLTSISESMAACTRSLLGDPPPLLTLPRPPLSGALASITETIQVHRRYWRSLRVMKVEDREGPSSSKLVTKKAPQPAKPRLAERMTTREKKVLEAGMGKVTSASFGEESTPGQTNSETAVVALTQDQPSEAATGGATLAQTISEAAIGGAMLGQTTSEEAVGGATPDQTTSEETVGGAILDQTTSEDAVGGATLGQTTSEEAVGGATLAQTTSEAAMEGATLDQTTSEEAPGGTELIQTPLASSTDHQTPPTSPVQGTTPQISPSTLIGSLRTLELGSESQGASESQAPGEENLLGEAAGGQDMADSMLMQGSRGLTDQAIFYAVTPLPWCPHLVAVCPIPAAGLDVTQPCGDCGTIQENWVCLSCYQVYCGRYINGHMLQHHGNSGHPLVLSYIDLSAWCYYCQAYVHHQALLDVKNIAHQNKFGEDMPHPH
Procedure: (§1) The HDAC inhibitory activities of test materials were measured using the HDAC1 Fluorimetric Drug Discovery Assay Kit (Enzolifesciences: BML-AK511) and HDAC6 human recombinant (Calbiochem: 382180). In the HDAC1 assay, the samples were treated with concentrations of 100, 1000, and 10000 nM, and in the HDAC6 assay, the samples were treated with concentrations of 0.1, 1, 10, 100, and 1000 nM. After the treatment of the samples, the samples were reacted at 37° C. for 60 minutes, treated with a developer, and then reacted at 37° C. for 30 minutes. Then, the fluorescence intensity (Ex 390, Em 460) was measured using the FlexStation 3 (Molecular device).

[2] = target: HDAC1 (Homo sapiens, UniProt Q13547); assay: Test of HDAC activities, HDAC1 Fluorimetric Drug Discovery Assay Kit; type: biochemical; set-up: purchased Enzolifesciences BML-AK511; details: samples at 100, 1000, 10000 nM; 37° C. 60 minutes; fluorescence Ex 390, Em 460; read-out: HDAC inhibitory activities, HDAC1
Chain of HDAC1 (Q13547 whole entry): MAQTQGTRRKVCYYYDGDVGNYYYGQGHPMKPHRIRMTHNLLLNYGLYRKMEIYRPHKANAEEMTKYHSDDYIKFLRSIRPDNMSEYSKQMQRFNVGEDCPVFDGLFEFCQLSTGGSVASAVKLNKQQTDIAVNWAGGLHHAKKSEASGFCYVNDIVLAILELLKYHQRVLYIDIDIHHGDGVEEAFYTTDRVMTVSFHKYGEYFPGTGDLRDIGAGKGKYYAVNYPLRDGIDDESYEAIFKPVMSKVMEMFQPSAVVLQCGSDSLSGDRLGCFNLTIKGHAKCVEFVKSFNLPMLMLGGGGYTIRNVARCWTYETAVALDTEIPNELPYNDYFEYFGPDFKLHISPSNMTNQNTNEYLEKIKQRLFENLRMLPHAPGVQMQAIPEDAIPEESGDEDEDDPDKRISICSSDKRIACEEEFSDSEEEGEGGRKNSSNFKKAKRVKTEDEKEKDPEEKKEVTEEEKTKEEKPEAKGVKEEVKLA
Procedure: as §1

Row | SMILES | pIC50 [1] | pIC50 [2]
1 | O=C(NO)c1ccc(CN(C(=O)N2CCOCC2)c2cccc(OC(F)(F)F)c2)cc1 [Compound 773, N-(4-(hydroxycarbamoyl)benzyl)-N-(3-(trifluoromethoxy)phenyl)morpholine-4-carboxamide] | 8.55 | 6.51
2 | CC(C)NC(=O)N1CCC(c2cccc(N(Cc3ccc(C(=O)NO)cc3)C(=O)N3CCOCC3)c2)CC1 [Compound 492, N-(4-(hydroxycarbamoyl)benzyl)-N-(3-(1-(isopropylcarbamoyl)piperidin-4-yl)phenyl)morpholine-4-carboxamide] | 8.70 | 5.90
3 | O=C(NO)c1ccc(CN(C(=O)N2CCCCC2)c2cccc(C(F)(F)F)n2)cc1 [Compound 828, N-(4-(hydroxycarbamoyl)benzyl)-N-(6-(trifluoromethyl)pyridin-2-yl)piperidine-1-carboxamide] | 7.44 | 5.38
4 | Cc1cccc(C)c1-c1cccc(N(Cc2ccc(C(=O)NO)cc2)C(=O)N2CCOCC2)c1 [Compound 401, N-(2′,6′-dimethylbiphenyl-3-yl)-N-(4-(hydroxycarbamoyl)benzyl)morpholine-4-carboxamide] | 8.10 | 5.75
5 | O=C(NO)c1ccc(CN(C(=O)N2CCOCC2)c2nc(-c3ccc(Cl)cc3)cs2)cc1 [Compound 371, N-(4-(4-chlorophenyl)thiazol-2-yl)-N-(4-(hydroxycarbamoyl)benzyl)morpholine-4-carboxamide] | 7.70 | 5.88
6 | O=C(NO)c1ccc(CN(C(=O)N2CCC2)c2cccc(-c3ccc4c(c3)OCO4)c2)cc1 [Compound 471, N-(3-(benzo[d][1,3]dioxol-5-yl)phenyl)-N-(4-(hydroxycarbamoyl)benzyl)azetidine-1-carboxamide] | 7.85 | 5.94
7 | O=C(NO)c1ccc(CN(C(=O)N2CCOCC2)c2ccc(C(F)(F)F)cc2)cc1 [Compound 385, N-(4-(hydroxycarbamoyl)benzyl)-N-(4-(trifluoromethyl)phenyl)morpholine-4-carboxamide] | 8.30 | 6.01
8 | O=C(NO)c1ccc(CN(C(=O)N2CCOCC2)c2cccc(-c3ccc4[nH]ccc4c3)c2)cc1 [Compound 263, N-(3-(1H-indol-5-yl)phenyl)-N-(4-(hydroxycarbamoyl)benzyl)morpholine-4-carboxamide] | 8.70 | 7.12
9 | O=C(NO)c1ccc(CN(C(=O)N2CCN(Cc3ccccc3)CC2)c2ccc(F)c(Cl)c2)cc1 [Compound 480, 4-benzyl-N-(3-chloro-4-fluorophenyl)-N-(4-(hydroxycarbamoyl)benzyl)piperazine-1-carboxamide] | 7.74 | 5.97
10 | O=C(NO)c1ccc(CN(C(=O)N2CCCC2)c2ccccn2)cc1 [Compound 358, N-(4-(hydroxycarbamoyl)benzyl)-N-(pyridin-2-yl)pyrrolidine-1-carboxamide] | 8.05 | 5.38
11 | O=C(NO)c1ccc(CN(C(=O)N2CCC(O)CC2)c2cccc(-c3ccc4c(c3)OCO4)c2)cc1 [Compound 463, N-(3-(benzo[d][1,3]dioxol-5-yl)phenyl)-4-hydroxy-N-(4-(hydroxycarbamoyl)benzyl)piperidine-1-carboxamide] | 8.52 | 6.55

Continued by rising pIC50 [1], values first:

Row | pIC50 [1] | pIC50 [2] | SMILES
12 | 7.43 | 5.11 | O=C(NO)c1ccc(CN(C(=O)N2CCCCC2)c2ccc(Cl)c(C(F)(F)F)c2)cc1 [Compound 389, N-(4-chloro-3-(trifluoromethyl)phenyl)-N-(4-(hydroxycarbamoyl)benzyl)piperidine-1-carboxamide]
13 | 7.61 | 5.76 | CC1CN(C(=O)N(Cc2ccc(C(=O)NO)cc2)c2cccc(C(F)(F)F)n2)CC(C)O1 (centres unmarked) [Compound 827, N-(4-(hydroxycarbamoyl)benzyl)-2,6-dimethyl-N-(6-(trifluoromethyl)pyridin-2-yl)morpholine-4-carboxamide]
14 | 7.62 | 5.62 | O=C(NO)c1ccc(CN(C(=O)N2CCN(c3ccccc3)CC2)c2cccc(C(F)(F)F)c2)cc1 [Compound 717, N-(4-(hydroxycarbamoyl)benzyl)-4-phenyl-N-(3-(trifluoromethyl)phenyl)piperazine-1-carboxamide]
15 | 7.92 | 5.27 | O=C(NO)c1ccc(CN(C(=O)N2CCC[C@H]2CO)c2cccc(-c3ccc4c(c3)OCO4)c2)cc1 [Compound 469, (S)—N-(3-(benzo[d][1,3]dioxol-5-yl)phenyl)-N-(4-(hydroxycarbamoyl)benzyl)-2-(hydroxymethyl)pyrrolidine-1-carboxamide]
16 | 8.15 | 5.34 | O=C(NO)c1ccc(CN(C(=O)N2CC=C(c3ccccc3)CC2)c2ccccn2)cc1 [Compound 352, N-(4-(hydroxycarbamoyl)benzyl)-4-phenyl-N-(pyridin-2-yl)-5,6-dihydropyridine-1(2H)-carboxamide]
17 | 8.15 | 6.55 | CCN1CCN(C(=O)N(Cc2ccc(C(=O)NO)cc2)c2ccc(F)c(Cl)c2)CC1 [Compound 479, N-(3-chloro-4-fluorophenyl)-4-ethyl-N-(4-(hydroxycarbamoyl)benzyl)piperazine-1-carboxamide]
18 | 8.30 | 5.44 | O=C(NO)c1ccc(CN(C(=O)N2CCOCC2)c2cccc(CO)c2)cc1 [Compound 499, N-(4-(hydroxycarbamoyl)benzyl)-N-(3-(hydroxymethyl)phenyl)morpholine-4-carboxamide]
19 | 8.30 | 5.54 | CC1CN(C(=O)N(Cc2ccc(C(=O)NO)cc2)c2ccc(Cl)c(C(F)(F)F)c2)CC(C)O1 (centres unmarked) [Compound 392, N-(4-chloro-3-(trifluoromethyl)phenyl)-N-(4-(hydroxycarbamoyl)benzyl)-2,6-dimethylmorpholine-4-carboxamide]
20 | 8.74 | 6.36 | CCN1CCN(C(=O)N(Cc2ccc(C(=O)NO)cc2)c2cccc(CF)c2)CC1 [Compound 765, 4-ethyl-N-(3-(fluoromethyl)phenyl)-N-(4-(hydroxycarbamoyl)benzyl)piperazine-1-carboxamide]
21 | 8.96 | 6.23 | O=C(NO)c1ccc(CN(C(=O)N2CCOCC2)c2cccc(F)c2F)cc1 [Compound 791, N-(2,3-difluorophenyl)-N-(4-(hydroxycarbamoyl)benzyl)morpholine-4-carboxamide]
22 | 9.00 | 6.34 | O=C(NO)c1ccc(CN(C(=O)N2CCOCC2)c2cccc(C3=CCOCC3)c2)cc1 [Compound 403, N-(3-(3,6-dihydro-2H-pyran-4-yl)phenyl)-N-(4-(hydroxycarbamoyl)benzyl)morpholine-4-carboxamide]
23 | 9.00 | 6.53 | O=C(NO)c1ccc(CN(C(=O)N2CCOCC2)c2ccccc2)cc1 [Compound 279, N-(4-(hydroxycarbamoyl)benzyl)-N-phenylmorpholine-4-carboxamide]
24 | 9.00 | 5.95 | O=C(NO)c1ccc(CN(C(=O)N2CC[C@H](F)C2)c2cccc(C(F)(F)F)c2)cc1 [Compound 496, (S)-3-fluoro-N-(4-(hydroxycarbamoyl)benzyl)-N-(3-(trifluoromethyl)phenyl)pyrrolidine-1-carboxamide]
25 | 9.30 | 5.91 | CC(C)(C)OC(=O)N1CCC(c2cccc(N(Cc3ccc(C(=O)NO)cc3)C(=O)N3CCOCC3)c2)CC1 [Compound 489, tert-butyl 4-(3-(N-(4-(hydroxycarbamoyl)benzyl)morpholine-4-carboxamido)phenyl)piperidine-1-carboxylate]
